Data as given in ChEMBL document CHEMBL1145498, “A systematic interaction map of validated kinase inhibitors with Ser/Thr kinases” (Proc Natl Acad Sci U S A, 2007).

What was measured:
[1] = biological target: Calcium/calmodulin-dependent protein kinase type II subunit alpha (Homo sapiens) (UniProt Q9UQM7)
[2] = biological target: TRAF2 and NCK-interacting protein kinase (Homo sapiens) (UniProt Q9UKE5)
[3] = biological target: Glycogen synthase kinase-3 beta (Homo sapiens, UniProt P49841)
[4] = biological target: Calcium/calmodulin-dependent protein kinase type II subunit gamma (Homo sapiens) (UniProt Q13555)
[5] = biological target: Calcium/calmodulin-dependent protein kinase type II subunit delta (Homo sapiens) (UniProt Q13557)
[6] = biological target: Cyclin-dependent kinase 2 (Homo sapiens, UniProt P24941)
[7] = biological target: Serine/threonine-protein kinase PAK 6 (Homo sapiens) (UniProt Q9NQU5)
[8] = biological target: Serine/threonine-protein kinase PLK1 (Homo sapiens) (UniProt P53350)
[9] = biological target: Serine/threonine-protein kinase 10 (Homo sapiens) (UniProt O94804)
[10] = biological target: Dual specificity mitogen-activated protein kinase kinase 2 (Homo sapiens, UniProt P36507)
[11] = biological target: Serine/threonine-protein kinase 26 (Homo sapiens) (UniProt Q9P289)
[12] = biological target: Casein kinase I isoform gamma-2 (Homo sapiens) (UniProt P78368)
[13] = biological target: Serine/threonine-protein kinase pim-1 (Homo sapiens) (UniProt P11309)
[14] = biological target: T1, Serine/threonine-protein kinase Nek2 (Homo sapiens) (UniProt P51955)
T1 sequence (whole entry): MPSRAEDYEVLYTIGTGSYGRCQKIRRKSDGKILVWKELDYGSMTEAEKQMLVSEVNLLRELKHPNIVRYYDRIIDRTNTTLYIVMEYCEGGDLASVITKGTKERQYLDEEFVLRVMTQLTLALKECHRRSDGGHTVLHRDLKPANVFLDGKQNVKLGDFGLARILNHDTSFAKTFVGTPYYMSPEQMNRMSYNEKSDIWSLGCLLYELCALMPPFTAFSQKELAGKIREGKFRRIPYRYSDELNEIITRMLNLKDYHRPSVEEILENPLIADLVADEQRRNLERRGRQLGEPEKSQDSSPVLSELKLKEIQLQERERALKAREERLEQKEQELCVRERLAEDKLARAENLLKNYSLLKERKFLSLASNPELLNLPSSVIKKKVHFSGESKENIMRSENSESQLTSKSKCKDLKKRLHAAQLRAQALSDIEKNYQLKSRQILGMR

[15] = biological target: Dual specificity protein kinase CLK1 (Homo sapiens) (UniProt P49759)
[16] = biological target: Serine/threonine-protein kinase 25 (Homo sapiens) (UniProt O00506)
[17] = biological target: T2, Mitogen-activated protein kinase kinase kinase 5 (Homo sapiens) (UniProt Q99683)
T2 sequence (whole entry): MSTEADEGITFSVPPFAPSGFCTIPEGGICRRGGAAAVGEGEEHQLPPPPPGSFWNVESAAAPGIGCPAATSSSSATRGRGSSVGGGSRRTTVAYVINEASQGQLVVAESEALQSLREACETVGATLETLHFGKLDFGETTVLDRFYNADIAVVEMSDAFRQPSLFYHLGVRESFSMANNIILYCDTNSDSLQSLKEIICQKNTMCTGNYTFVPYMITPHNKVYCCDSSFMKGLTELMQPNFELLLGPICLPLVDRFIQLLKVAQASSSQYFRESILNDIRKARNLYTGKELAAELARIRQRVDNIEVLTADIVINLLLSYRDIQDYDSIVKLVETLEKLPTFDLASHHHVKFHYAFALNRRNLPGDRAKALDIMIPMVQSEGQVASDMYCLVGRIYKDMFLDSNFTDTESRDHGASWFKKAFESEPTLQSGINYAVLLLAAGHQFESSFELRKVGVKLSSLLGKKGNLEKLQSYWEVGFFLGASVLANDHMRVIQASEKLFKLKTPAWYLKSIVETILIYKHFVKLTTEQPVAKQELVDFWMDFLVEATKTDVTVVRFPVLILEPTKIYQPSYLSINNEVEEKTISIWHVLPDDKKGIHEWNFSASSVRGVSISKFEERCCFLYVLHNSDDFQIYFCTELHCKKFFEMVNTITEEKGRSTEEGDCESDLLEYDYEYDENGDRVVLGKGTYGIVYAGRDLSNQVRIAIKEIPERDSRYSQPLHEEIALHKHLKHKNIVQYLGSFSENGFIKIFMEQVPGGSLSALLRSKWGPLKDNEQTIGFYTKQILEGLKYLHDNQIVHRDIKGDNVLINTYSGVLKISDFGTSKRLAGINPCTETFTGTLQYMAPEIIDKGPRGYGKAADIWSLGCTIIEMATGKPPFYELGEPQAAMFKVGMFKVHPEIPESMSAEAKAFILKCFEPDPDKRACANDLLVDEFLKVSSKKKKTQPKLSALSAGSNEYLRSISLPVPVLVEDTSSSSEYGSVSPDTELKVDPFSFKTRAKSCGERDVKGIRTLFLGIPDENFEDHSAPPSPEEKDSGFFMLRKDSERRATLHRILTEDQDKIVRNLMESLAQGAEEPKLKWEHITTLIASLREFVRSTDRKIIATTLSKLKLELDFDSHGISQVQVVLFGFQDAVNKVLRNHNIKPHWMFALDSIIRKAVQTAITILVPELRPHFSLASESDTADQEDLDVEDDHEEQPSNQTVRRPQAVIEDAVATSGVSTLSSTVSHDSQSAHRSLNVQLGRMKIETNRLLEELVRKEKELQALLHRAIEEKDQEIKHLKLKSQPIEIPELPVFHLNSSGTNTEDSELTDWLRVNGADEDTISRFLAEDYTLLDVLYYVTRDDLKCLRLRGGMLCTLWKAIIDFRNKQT

[18] = biological target: Cyclin-dependent kinase-like 1 (Homo sapiens) (UniProt Q00532)
[19] = biological target: Serine/threonine-protein kinase 26 (Homo sapiens) (UniProt Q9P289); remark: listed apart in the source

Chain of Calcium/calmodulin-dependent protein kinase type II subunit gamma (Homo sapiens) (Q13555 whole entry): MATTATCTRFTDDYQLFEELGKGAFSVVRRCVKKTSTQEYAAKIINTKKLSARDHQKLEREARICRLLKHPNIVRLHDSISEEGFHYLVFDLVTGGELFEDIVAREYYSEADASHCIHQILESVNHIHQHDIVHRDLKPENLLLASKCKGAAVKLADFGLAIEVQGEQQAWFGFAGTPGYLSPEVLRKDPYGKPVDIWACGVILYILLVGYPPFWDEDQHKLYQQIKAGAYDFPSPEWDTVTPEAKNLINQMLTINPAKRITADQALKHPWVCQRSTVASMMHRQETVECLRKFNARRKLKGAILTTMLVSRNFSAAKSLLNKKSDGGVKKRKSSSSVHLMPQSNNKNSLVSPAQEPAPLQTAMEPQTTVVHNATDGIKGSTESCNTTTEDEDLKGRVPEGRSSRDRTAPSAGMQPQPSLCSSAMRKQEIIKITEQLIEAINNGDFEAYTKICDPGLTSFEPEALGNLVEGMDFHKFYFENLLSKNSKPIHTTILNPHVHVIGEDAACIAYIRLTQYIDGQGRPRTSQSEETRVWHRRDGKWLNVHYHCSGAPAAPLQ
Chain of Serine/threonine-protein kinase 26 (Homo sapiens) (Q9P289 2-416 limits assumed): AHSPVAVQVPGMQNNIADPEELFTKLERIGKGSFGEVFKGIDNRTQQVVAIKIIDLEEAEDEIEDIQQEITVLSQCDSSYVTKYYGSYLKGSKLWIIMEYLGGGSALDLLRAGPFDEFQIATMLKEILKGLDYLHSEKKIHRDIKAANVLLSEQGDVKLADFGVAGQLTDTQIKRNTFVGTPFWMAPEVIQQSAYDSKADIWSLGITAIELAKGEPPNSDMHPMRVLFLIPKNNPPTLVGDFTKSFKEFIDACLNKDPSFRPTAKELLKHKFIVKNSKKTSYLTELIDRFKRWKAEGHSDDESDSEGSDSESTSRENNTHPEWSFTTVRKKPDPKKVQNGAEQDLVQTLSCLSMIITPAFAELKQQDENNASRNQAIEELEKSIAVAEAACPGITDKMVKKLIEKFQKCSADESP
Chain of Dual specificity protein kinase CLK1 (Homo sapiens) (P49759 whole entry, looked up): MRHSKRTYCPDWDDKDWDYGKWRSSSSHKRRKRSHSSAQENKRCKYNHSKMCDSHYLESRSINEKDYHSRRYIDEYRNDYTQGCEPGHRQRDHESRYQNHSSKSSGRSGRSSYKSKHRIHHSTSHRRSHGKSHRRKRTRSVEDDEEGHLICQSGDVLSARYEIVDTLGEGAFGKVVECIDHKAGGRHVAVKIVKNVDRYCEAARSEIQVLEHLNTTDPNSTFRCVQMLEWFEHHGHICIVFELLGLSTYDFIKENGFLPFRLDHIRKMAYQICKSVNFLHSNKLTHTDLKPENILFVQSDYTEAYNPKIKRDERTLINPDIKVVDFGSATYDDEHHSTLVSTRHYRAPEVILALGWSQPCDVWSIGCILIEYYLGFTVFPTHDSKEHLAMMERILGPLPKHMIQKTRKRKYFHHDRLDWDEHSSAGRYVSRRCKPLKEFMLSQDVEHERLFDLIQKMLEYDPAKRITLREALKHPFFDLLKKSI
Chain of Glycogen synthase kinase-3 beta (P49841 whole entry, looked up): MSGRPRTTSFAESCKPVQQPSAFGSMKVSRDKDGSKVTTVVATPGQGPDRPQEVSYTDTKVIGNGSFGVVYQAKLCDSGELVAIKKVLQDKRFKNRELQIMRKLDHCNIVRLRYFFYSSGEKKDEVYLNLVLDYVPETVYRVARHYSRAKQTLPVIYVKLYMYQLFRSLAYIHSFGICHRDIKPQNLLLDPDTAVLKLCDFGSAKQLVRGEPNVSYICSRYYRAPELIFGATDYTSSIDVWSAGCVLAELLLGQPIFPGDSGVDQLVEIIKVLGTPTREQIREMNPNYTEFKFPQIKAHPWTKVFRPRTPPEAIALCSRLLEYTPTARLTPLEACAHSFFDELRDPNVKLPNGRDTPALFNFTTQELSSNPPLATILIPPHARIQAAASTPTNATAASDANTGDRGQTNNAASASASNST
Chain of Calcium/calmodulin-dependent protein kinase type II subunit alpha (Homo sapiens) (Q9UQM7 whole entry): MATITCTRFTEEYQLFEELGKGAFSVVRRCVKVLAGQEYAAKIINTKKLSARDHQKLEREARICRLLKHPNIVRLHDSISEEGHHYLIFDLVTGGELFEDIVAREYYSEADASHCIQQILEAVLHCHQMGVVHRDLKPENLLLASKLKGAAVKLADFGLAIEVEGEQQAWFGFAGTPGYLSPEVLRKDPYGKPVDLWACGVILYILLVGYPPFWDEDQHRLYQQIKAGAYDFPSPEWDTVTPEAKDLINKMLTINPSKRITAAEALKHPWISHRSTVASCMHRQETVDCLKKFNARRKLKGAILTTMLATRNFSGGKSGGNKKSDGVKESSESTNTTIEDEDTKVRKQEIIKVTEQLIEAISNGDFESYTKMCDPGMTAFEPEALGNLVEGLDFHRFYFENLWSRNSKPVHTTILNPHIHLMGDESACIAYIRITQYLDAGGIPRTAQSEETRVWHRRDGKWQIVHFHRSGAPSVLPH
Chain of Calcium/calmodulin-dependent protein kinase type II subunit delta (Homo sapiens) (Q13557 whole entry): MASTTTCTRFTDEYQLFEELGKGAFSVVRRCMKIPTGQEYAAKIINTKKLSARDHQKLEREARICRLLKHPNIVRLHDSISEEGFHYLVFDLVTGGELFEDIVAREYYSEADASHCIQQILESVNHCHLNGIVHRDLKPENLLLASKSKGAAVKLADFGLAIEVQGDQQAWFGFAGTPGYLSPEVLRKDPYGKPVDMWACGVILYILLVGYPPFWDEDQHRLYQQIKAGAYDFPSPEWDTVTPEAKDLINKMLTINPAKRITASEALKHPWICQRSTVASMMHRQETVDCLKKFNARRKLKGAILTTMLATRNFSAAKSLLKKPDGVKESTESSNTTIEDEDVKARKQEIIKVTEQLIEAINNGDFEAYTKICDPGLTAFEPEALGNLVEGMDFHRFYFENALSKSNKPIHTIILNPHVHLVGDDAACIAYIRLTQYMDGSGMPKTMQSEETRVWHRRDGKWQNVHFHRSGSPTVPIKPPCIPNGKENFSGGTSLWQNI
Chain of Casein kinase I isoform gamma-2 (Homo sapiens) (P78368 whole entry, looked up, canonical isoform): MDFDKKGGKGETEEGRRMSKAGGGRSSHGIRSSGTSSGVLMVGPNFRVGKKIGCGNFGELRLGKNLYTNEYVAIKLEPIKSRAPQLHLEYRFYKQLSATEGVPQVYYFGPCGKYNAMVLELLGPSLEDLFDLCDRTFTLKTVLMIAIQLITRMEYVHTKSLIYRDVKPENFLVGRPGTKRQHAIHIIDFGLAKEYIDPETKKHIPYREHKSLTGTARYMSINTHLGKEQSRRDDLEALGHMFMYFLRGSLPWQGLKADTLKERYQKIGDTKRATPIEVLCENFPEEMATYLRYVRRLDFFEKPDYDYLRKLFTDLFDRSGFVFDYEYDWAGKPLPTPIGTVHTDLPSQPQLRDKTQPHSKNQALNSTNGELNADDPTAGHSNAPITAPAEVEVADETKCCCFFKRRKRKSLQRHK
Chain of Serine/threonine-protein kinase pim-1 (Homo sapiens) (P11309 whole entry, looked up): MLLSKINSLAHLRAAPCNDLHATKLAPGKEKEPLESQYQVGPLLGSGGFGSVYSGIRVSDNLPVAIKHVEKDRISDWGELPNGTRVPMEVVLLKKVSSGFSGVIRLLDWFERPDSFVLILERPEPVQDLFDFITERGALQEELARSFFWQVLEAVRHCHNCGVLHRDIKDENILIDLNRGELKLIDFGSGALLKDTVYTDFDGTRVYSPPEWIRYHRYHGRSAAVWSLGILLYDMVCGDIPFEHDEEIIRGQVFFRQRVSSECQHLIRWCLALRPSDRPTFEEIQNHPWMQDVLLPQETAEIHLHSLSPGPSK
Chain of Serine/threonine-protein kinase PLK1 (Homo sapiens) (P53350 whole entry): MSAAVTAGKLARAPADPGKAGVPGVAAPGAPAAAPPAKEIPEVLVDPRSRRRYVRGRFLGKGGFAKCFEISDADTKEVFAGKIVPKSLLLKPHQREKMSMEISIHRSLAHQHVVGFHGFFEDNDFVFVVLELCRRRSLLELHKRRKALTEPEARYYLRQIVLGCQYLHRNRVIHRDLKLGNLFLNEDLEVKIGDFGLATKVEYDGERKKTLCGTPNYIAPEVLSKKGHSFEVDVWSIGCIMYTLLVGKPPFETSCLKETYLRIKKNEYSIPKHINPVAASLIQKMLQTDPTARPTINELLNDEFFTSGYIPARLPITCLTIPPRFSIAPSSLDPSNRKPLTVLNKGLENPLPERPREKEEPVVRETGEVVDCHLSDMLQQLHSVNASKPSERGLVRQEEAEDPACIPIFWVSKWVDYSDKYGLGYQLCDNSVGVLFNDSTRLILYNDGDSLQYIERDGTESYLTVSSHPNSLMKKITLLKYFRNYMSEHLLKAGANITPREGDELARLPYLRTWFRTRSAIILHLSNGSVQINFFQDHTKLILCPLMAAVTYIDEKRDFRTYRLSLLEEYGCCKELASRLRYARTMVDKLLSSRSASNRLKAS
Chain of Serine/threonine-protein kinase 25 (Homo sapiens) (O00506 whole entry, looked up): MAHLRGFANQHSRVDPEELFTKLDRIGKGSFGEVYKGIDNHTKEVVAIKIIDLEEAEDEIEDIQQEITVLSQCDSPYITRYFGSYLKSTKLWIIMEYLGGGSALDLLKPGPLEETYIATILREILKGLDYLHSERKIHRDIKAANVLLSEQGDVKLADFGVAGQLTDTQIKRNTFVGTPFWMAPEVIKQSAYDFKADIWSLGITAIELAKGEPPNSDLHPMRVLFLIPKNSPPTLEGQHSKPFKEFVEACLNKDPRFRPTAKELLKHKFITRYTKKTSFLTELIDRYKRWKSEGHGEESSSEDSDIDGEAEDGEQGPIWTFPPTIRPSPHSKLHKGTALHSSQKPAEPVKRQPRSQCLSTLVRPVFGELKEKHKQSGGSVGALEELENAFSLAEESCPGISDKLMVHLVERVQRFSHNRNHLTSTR
Chain of Cyclin-dependent kinase-like 1 (Homo sapiens) (Q00532 whole entry): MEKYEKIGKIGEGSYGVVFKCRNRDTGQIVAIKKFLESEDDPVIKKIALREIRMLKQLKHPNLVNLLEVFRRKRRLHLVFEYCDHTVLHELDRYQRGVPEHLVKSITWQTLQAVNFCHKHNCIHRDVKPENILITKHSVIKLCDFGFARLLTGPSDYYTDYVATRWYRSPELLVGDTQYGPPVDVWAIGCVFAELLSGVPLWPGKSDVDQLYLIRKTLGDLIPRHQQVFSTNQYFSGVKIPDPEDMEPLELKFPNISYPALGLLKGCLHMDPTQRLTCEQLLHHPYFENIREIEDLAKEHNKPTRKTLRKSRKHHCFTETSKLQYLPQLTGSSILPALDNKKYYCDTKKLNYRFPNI

Compound | ΔTm [1] [°C] | ΔTm [2] [°C] | ΔTm [3] [°C] | ΔTm [4] [°C] | ΔTm [5] [°C] | ΔTm [6] [°C] | ΔTm [7] [°C] | ΔTm [8] [°C] | ΔTm [9] [°C] | ΔTm [10] [°C] | ΔTm [11] [°C] | ΔTm [12] [°C] | ΔTm [13] [°C] | ΔTm [14] [°C] | ΔTm [15] [°C] | ΔTm [16] [°C] | ΔTm [17] [°C] | ΔTm [18] [°C] | ΔTm [19] [°C]
COc1cccc(-c2cc(=O)c3ccccc3o2)c1N | -0.5 | -0.1 | 0.1 | 0.1 | 0.3 | 0.3 | 0.4 | 0.3 | 0.4 | 0.1 | -0.3 | 0.5 | 0.9 | -0.2 | 0.2 | 0.5 | -0.1 | 0 | -0.1
COc1cc(O)c2c(c1)oc(=O)c1c3cc(O)c(O)cc3oc21 [WEDELOLACTONE] | 1.2 | 1.3 | -0.4 | 0.2 | 0.5 | -4.5 | -0.6 | 1.4 | 1.3 | 0.1 | 3.2 | 2.7 | 3.4 | 2 | 2.6 | 2.7 | 0.8 | -0.3 | 1.4
CC(C)(C)n1nc(-c2cccc3ccccc23)c2c(N)ncnc21 | 0.3 | 4.5 | 0.1 | 0.2 | -0.1 | 0.1 | 0.3 | 0 | 4 | 3.2 | 1.1 | 0.5 | -0.2 | -0.2 | 1.1 | 1.3 | 0.8 | -0.5 | -4.9
N#C/C(=C(/N)Sc1ccc(N)cc1)c1ccccc1C(F)(F)F | 0.6 | -0.1 | -0.1 | 0.1 | 0.1 | 0.4 | 0.4 | -0.2 | 0.4 | 0.8 | 1 | 0.3 | -0.2 | 1.3 | 0.1 | 0 | -0.1 | -0.2 | 1.1
NC1=N/C(=C2/CCNC(=O)c3[nH]ccc32)C(=O)N1 [DEBROMOHYMENIALDISINE] | 0.1 | 1.6 | 5 | 0.3 | 0.1 | 0.7 | 0.1 | 2.4 | 1.7 | 0.4 | 0.7 | 3.5 | 0.7 | 1.1 | 6 | 1.7 | 4.6 | 0.3 | 1.3
COc1ccc2c(c[n+](C)c3c4cc5c(cc4ccc23)OCO5)c1OC [CHELERYTHRINE CHLORIDE] | 0.6 | -1.3 | -1.5 | -0.2 | -0.8 | 0.2 | -3.3 | 0 | -1.1 | -0.9 | -4.2 | -0.2 | -4.4 | -1.2 | -4.4 | -0.3 | -0.2 | -3.5 | -1
O=C1Cc2c([nH]c3ccc(Br)cc23)-c2ccccc2N1 [KENPAULLONE] | 0 | 6.7 | 10.5 | -0.2 | 0.2 | 3.6 | 3.7 | 0.1 | 2.2 | -0.3 | 1.5 | 0 | 2.6 | 1.3 | 1.7 | 2.7 | 0.8 | -0.1 | 1.4
N=C(N)NCCNS(=O)(=O)c1cccc2cnccc12 | 0.3 | 0.1 | 0.4 | 0 | 0.1 | 0.3 | 0 | 0.3 | 0.7 | -0.6 | 0.1 | 0.4 | -0.4 | 0.5 | 0.7 | -0.4 | 0.1 | 0 | -0.3
O=C1NC(=O)c2c1c1c3ccccc3n3c1c1c2c2ccccc2n1C1CCC3O1 | -0.4 | 7.6 | -0.2 | 0 | -0.2 | 0.2 | 1.5 | 4 | -0.5 | -0.2 | -0.6 | 0.7 | 6.2 | 0.3 | 3.3 | 2.1 | 3.9 | -0.4 | 1.5
Cc1ccc(NC(=O)c2cccc(N(C)C)c2)cc1NC(=O)c1ccc(O)cc1 | 0.1 | 0.1 | 0 | 0.1 | 0 | 0.3 | 0.6 | 0.9 | 0.1 | 0.4 | 1 | 0.2 | -0.3 | 0.3 | -0.2 | -0.3 | -0.4 | -0.4 | 0.7
N#CCCc1ccc2c(c1)-c1[nH]c3ccc([N+](=O)[O-])cc3c1CC(=O)N2 [ALSTERPAULLONE 2] | 0.4 | 5.4 | 11.8 | 0.1 | -0.3 | 6.6 | 2.3 | 0.4 | 4 | 0.9 | 2.8 | 2 | 1.9 | 2.2 | 3.1 | 4.2 | 1.8 | 0.5 | 3.5
